Consider 1 molecule from patent US9629830B2, “EphA4 inhibitors as neuroprotective agents” (The Hong Kong University of Science and Technology, priority 2013, dated 2017).

For one test, the target named is T1, EphA4 (HT-22 cells) (Mus musculus, UniProt Q03137).
T1 construct: HT-22 cells, a cell line that expresses EphA4; endogenous in cells; host or cells: HT-22 cells
The experiment in a line: Cell-based binding of biotinylated ephrin-A1 to the surface of HT-22 cells. Particulars: 10 min pre-incubation; Rhy 300 μM, KYL 100 μM (FIG. 10); biotinylated ephrin-A1 0.5 μg/mL. On the procedure: HT-22 cells were seeded on poly-D-lysine coverslips. […] The cells were then fixed with 4% paraformaldehyde and then immunostained with Alexa Fluor 488-conjugated Streptavidin antibody (Molecular Probes) for surfacing labeling of biotinylated ephrin-A1.

Test [1] deals with glutamate-induced Ca2+ influx. Particulars: subsequent study; cited from earlier work.
For a further test, the system named is APP/PS1 mice. The test can be described thus: Amyloid plaque deposition and microglial activation in APP/PS1 mice (immunohistochemistry). It counts as in vivo, mouse. As for the experimental part:
For immunohistochemical analysis, mice were anesthetised, transcardially perfused with saline followed by 4% paraformaldehyde (pH 7.4), and the brains were removed^66. After overnight postfixation and a series of cryoprotection, the brains were coronally sectioned at a thickness of 20 μm using a cryostat (Microm HM 560, Thermo Scientific). The sections were stained with β-amyloid (1:200) and Iba1 (1:500) antibodies overnight at 4° C., followed by incubation with appropriate fluorescence-conjugated secondary antibodies and mounted in Hydromount (National diagnostics). Images were taken with a Leica DMRA microscope. For 3,3-diaminobenzidine (DAB) staining, the sections were rehydrated and subjected to antigen retrieval. […]
Images from the same experiment were obtained using identical acquisition settings, and images were analyzed with Metamorph software (Meta Image Series 7.5, Universal Imaging Corp.)^24,58. For quantifying the EphA4 and PSD-95 clusters, two dendrite segments from each neuron were analyzed for quantification. […] The basal threshold values for the background of all images in each experiment were measured. […] To measure the density of clusters in dendrites, the images were first thresholded to include the clusters with intensity 2-fold greater than the signal of an adjacent dendrite, and the total number of clusters and dendrite length were measured automatically. […]

A further test has as its system Tg2576 mutant mice. The test can be described thus: HFS-induced hippocampal LTP in WT and Tg2576 mice after oral treatment. The class given is in vivo, mouse. From the text:
APP/PS1 double-transgenic mice were obtained from Jackson Laboratory (B6C3-Tg[APPswe, PSEN1dE9]85Dbo/J)^66. These mice were generated by incorporating a human/murine APP construct bearing the Swedish double mutation and the exon-9-deleted PSEN1 mutation (APPswe+PSEN1/dE9). APP transgenic mice (Tg2576) expressing a double mutant of human AβPP (Lys^670→Asn^670, Met^671→Leu^671) were also used^31. Both sexes were used for experiments, and all mice used in this study were produced by the Animal Care Facility of The Hong Kong University of Science and Technology. The genotype was confirmed by polymerase chain reaction analysis of tail biopsies. Four to five mice of the same sex were housed in a cage with food and water ad libitum with a 12-hour light/dark cycle.
To investigate the effect of blocking EphA4 signaling by KYL peptide in AD mice, 4-5-month-old AD transgenic mice were implanted with Alzet mini-osmotic pumps, model 1004, pumping its contents at 0.11 μL/h for 28 days. Pumps were loaded with either 0.23 μg/μL KYL peptide (17 μg) or vehicle solvent in artificial cerebrospinal fluid (CSF). The mini-osmotic pumps were adjusted intracerebroventricularly in the right hemisphere. […]
For LTP recordings, mouse brains were immediately dissected after sacrifice and soaked in ice-cold 95% O2/5% CO2 (aCSF)^58. […] For treatment with EphA4 inhibitors, the slices were pretreated with peptides or chemicals for 1 h before application of Aβ. fEPSPs were recorded using a MED64 multichannel recording system, and the data were collected from the dendritic layer of area CA1 at a sampling rate of 10 kHz. For each slice, the baseline stimulus intensity was set at the level that elicited ˜50% of the maximum fEPSP response determined according to the input-output curve. […] The magnitude of LTP was quantified as a percentage change in the fEPSP slope (10%-90%) taken during the 60-min interval after LTP induction.

The structures appear in SMILES notation. Entries after “also recorded” stand apart in the source; their conditions may differ.

T1 sequence (Q03137 20-986): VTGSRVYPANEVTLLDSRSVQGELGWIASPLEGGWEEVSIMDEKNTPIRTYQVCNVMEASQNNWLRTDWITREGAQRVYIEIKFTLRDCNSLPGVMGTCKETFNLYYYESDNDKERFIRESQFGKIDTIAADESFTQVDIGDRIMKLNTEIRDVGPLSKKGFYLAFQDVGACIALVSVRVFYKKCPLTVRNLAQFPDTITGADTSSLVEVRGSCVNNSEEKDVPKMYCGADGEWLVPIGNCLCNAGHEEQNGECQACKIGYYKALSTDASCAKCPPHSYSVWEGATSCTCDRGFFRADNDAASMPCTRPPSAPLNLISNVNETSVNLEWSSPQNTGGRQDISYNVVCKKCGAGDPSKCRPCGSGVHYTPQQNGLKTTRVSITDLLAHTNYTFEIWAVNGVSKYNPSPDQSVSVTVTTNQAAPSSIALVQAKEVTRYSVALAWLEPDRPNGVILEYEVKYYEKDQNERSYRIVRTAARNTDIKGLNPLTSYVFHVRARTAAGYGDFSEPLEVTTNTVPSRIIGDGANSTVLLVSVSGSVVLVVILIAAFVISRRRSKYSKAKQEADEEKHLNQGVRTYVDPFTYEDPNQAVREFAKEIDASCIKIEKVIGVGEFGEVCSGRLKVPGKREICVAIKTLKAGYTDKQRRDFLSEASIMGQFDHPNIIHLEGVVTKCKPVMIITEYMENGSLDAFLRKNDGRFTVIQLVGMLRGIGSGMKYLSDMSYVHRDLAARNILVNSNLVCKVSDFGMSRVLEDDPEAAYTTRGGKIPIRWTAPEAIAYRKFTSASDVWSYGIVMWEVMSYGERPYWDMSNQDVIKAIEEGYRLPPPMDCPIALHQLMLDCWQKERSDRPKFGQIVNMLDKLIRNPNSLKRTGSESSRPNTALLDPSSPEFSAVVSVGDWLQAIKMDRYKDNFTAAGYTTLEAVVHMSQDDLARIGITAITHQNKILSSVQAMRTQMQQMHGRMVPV

`CC[C@H]1CN2CC[C@]3(C(=O)Nc4ccccc43)[C@@H]2C[C@@H]1/C(=C\OC)C(=O)OC` [Rhy, methyl (7β,16E,20α)-16-(methoxymethylene)-2-oxocorynoxan-17-oate]: the “binding of ephrin-A1 to HT-22 cells” value on EphA4 (HT-22 cells) is given as “reduced the binding of ephrin-A1 to HT-22 cells; also recorded: reduces the binding of ephrin-A1 to the surface of HT22 cells”. For the same molecule, the “inhibition of glutamate-induced Ca2+ influx” value in test [1] was “nor inhibits the glutamate-induced Ca^2+ influx”. In addition, the “amyloid plaques in cortex and hippocampus” value with APP/PS1 mice (APP/PS1 mice, 10-week administration of Rhy versus water) was “number and total area of amyloid plaques decreased significantly”. Further, the “plaque-associated reactive microglia, Iba1 staining” value in the test on APP/PS1 mice (cortex of APP/PS1 mice administered with Rhy) is reported as “significant reduction of plaque-associated reactive microglia”. Moreover, the “mean fEPSP slope, last 10 min after LTP induction” value came to 161.9±2.9% in the test with Tg2576 mutant mice (Tg2576 mice, Rhy oral 20 mg·kg−1·day−1 for 3 weeks, Tg Con 119.0±3.7%); 159.7±17.9% in the test on Tg2576 mutant mice (Tg2576 mice, Rhy oral 50 mg·kg−1·day−1 for 3 weeks, Tg Con 119.0±3.7%); 167.3±5.2% in the test on Tg2576 mutant mice (WT mice, Rhy oral 20 mg·kg−1·day−1 for 3 weeks, WT Con 170.1±9.7%).
